Test results from EP4796538A1, “NOVEL QUINOXALINE COMPOUNDS, MANUFACTURING METHOD THEREOF, AND USES THEREOF” (Gachon University of Industry-Academic Cooperation …, priority 2023, dated 2025).
Like-named read-outs stand apart in the source and are kept apart here.

Tests used:
RET(V804M) = target: T1, RET(V804M) (Homo sapiens, UniProt P07949, V804M); assay: Kinase panel inhibition, radiolabeled [γ-33P] ATP (Reaction Biology Corp); type: biochemical; conditions: compound at 1 uM; ATP 10 µM; read-out: % Enzyme Activity (relative to DMSO controls) V804M
T1 construct: purchased Reaction Biology Corp
T1 sequence (P07949 29-1114 V804M): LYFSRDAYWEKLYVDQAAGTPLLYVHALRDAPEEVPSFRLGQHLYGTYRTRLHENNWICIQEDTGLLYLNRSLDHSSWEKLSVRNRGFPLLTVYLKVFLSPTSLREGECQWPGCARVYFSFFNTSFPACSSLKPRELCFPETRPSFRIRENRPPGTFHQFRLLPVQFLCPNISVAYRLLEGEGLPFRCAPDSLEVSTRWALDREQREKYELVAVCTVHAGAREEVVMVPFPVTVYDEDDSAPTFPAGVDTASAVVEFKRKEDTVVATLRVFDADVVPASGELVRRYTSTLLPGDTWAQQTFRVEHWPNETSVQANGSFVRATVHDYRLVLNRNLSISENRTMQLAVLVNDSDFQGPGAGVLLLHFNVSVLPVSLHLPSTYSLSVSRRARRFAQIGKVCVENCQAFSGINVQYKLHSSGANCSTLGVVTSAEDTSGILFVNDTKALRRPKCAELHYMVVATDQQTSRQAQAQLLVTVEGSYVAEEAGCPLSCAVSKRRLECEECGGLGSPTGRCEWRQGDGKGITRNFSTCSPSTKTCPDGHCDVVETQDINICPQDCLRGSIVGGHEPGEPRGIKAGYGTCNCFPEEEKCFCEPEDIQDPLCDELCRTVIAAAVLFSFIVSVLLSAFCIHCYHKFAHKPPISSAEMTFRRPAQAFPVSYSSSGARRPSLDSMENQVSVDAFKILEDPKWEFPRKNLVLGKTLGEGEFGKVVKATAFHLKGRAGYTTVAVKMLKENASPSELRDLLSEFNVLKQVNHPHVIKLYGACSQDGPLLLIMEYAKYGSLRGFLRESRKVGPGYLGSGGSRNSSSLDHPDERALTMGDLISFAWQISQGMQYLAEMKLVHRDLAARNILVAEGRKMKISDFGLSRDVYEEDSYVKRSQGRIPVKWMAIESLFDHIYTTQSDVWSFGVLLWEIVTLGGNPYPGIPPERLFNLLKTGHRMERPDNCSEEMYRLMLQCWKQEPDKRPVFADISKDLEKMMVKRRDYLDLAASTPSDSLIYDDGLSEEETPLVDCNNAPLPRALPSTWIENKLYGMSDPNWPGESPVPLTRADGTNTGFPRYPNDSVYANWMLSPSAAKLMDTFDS

BaF3 KIF5B-RET (G810R) = assay: Cell proliferation inhibition, Cell Counting Kit-8, Ba/F3 cell line; type: cell-based, rodent; conditions: Mus musculus, 72 hours incubation, read-out: Cell Viability of BaF3 Cell lines (IC50 in uM) KIF5B-RET (G810R)
RET = target: T2, RET (Homo sapiens, UniProt P07949); assay: Kinase panel inhibition, radiolabeled [γ-33P] ATP (Reaction Biology Corp); type: biochemical; conditions: compound at 1 uM; ATP 10 µM; read-out: % Enzyme Activity (relative to DMSO controls) RET
T2 construct: purchased Reaction Biology Corp
T2 sequence (P07949 29-1114): as the sequence (P07949 29-1114 V804M) above, with M776V counted along it

RET (G810S/M918T) = target: T3, RET (G810S/M918T) (Homo sapiens, UniProt P07949, G810S/M918T); assay: as above; type: biochemical; conditions: ATP 1 µM; for remaining activity at 30 µM: compound at 30uM; for remaining activity at 10 µM: compound at 10 uM
T3 construct: purchased Reaction Biology Corp
T3 sequence (P07949 29-1114 G810S/M918T): as the sequence (P07949 29-1114 V804M) above, with M776V, G782S, M890T counted along it

RET(G810R) = target: T4, RET(G810R) (Homo sapiens, UniProt P07949, G810R); assay: as above; type: biochemical; conditions: ATP 10 µM, read-out: % Enzyme Activity (relative to DMSO controls) G810R; for remaining activity at 1 µM: compound at 1 uM
T4 construct: purchased Reaction Biology Corp
T4 sequence (P07949 29-1114 G810R): as the sequence (P07949 29-1114 V804M) above, with M776V, G782R counted along it

RET-CCDC6 (PTC1) = target: T5, RET-CCDC6 (PTC1) (Homo sapiens, UniProt P07949); assay: as above; type: biochemical; conditions: compound at 10 uM, ATP 1 µM
T5 construct: purchased Reaction Biology Corp
T5 sequence (P07949 whole entry, looked up): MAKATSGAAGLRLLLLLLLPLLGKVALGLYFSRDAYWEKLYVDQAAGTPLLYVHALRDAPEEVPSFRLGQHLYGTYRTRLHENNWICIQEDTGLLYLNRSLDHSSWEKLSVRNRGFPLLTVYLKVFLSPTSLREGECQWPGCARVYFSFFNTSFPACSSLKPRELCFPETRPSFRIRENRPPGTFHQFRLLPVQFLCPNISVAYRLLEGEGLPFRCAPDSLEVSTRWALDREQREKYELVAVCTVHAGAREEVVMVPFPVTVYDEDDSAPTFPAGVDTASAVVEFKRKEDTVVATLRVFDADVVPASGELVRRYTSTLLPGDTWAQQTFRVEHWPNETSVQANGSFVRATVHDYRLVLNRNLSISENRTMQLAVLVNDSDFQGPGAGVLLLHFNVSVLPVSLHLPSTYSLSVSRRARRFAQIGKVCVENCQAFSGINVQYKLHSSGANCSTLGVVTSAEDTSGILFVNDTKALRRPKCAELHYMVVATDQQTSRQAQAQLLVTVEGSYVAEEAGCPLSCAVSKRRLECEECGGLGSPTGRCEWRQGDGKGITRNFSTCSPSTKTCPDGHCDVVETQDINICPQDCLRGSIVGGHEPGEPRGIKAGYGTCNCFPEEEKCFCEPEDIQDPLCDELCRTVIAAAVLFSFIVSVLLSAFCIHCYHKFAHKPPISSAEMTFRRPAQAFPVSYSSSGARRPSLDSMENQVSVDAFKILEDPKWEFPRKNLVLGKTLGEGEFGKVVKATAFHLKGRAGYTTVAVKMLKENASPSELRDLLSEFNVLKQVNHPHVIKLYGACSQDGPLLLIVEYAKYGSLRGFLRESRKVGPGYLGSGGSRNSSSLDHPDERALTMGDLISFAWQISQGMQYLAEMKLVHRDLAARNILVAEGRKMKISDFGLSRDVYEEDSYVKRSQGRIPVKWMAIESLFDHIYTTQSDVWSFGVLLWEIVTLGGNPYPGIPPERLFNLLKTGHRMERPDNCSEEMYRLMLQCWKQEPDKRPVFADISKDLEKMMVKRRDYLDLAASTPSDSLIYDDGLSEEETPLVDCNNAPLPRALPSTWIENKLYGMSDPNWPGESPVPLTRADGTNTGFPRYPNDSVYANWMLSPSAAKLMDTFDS

A-549 = assay: Cell proliferation inhibition, Cell Counting Kit-8, non-small cell lung cancer cell line; type: cell-based; conditions: A-549 cell line; 72 hours incubation; test concentration not given
[1] = Data 1, read-out: % Enzyme Activity (relative to DMSO controls) RET (G810S/M918T) Data 1
[2] = Data 2, read-out: % Enzyme Activity (relative to DMSO controls) RET (G810S/M918T) Data 2
[3] = Data 1, read-out: % Enzyme Activity (relative to DMSO controls) RET-CCDC6 (PTC1) Data 1
[4] = Data 2, read-out: % Enzyme Activity (relative to DMSO controls) RET-CCDC6 (PTC1) Data 2

Row | Structure (SMILES) | remaining activity at 1 µM (RET(V804M)) [%] | IC50 (BaF3 KIF5B-RET (G810R)) [µM] | remaining activity at 1 µM (RET) [%] | remaining activity at 30 µM (RET (G810S/M918T); [1]) [%] | remaining activity at 30 µM (RET (G810S/M918T); [2]) [%] | remaining activity at 1 µM (RET(G810R)) [%] | remaining activity at 10 µM (RET-CCDC6 (PTC1); [3]) [%] | remaining activity at 10 µM (RET-CCDC6 (PTC1); [4]) [%] | remaining activity at 10 µM (RET (G810S/M918T); [1]) [%] | remaining activity at 10 µM (RET (G810S/M918T); [2]) [%] | remaining activity at 0.1 µM (RET(G810R); compound at 0.1 uM) [%] | Cell Proliferation (% of control) (A-549) [%]
1 | Nc1cc(-c2cnc(N3CC(Oc4cccc(F)c4)C3)nc2)c2nccnc2c1 [Example 29, 8-(2-(3-(3-fluorophenoxy)azetidin-1-yl)pyrimidin-5-yl)quinoxalin-6-amine] |  |  |  |  |  |  | 1.22 | 1.07 | 0.28 | 0.11 | 76.3 | 12.87
2 | CC(C)Nc1cc(-c2ccc(N3CC[C@H](NC(=O)c4ccccc4F)C3)nc2)c2nccnc2c1 [Example 14, (S)-2-fluoro-N-(1-(5-(7-(isopropylamino)quinoxalin-5-yl)pyridin-2-yl)pyrrolidin-3-yl)benzamide] |  |  |  |  |  |  | 1.04 | 0.72 | 5.08 | 4.68 |  | 47.83
3 | Nc1cc(-c2ccc(N3CCN(Cc4ccc(Br)cc4)CC3)nc2)c2nccnc2c1 [Example 24, 8-(6-(4-(4-bromobenzyl)piperazin-1-yl)pyridin-3-yl)quinoxalin-6-amine] |  |  |  |  |  |  | 1.51 | 1.27 | 2.24 | 2.38 |  | 15.35
4 | COc1ccc(CN2C3CC2CN(c2ccc(-c4cc(OCC(C)(C)O)cn5ncc(C#N)c45)cn2)C3)cn1 [Selpercatinib, selpercatinib, reference compound] |  | 1.41 |  |  |  |  |  |  |  |  |  | 
5 | O=C(Nc1cc(-c2ccc(N3CC(Oc4cccc(F)c4)C3)nc2)c2nccnc2c1)c1ccccn1 [Example 9, N-(8-(6-(3-(3-fluorophenoxy)azetidin-1-yl)pyridin-3-yl)quinoxalin-6-yl)picolinamide] |  |  |  |  |  |  | 2.81 | 3.74 | 49.5 | 50 |  | 18.67
6 | Nc1cc(-c2cnc(N3CC[C@H](NC(=O)c4ccccc4F)C3)nc2)c2nccnc2c1 [Example 30, (S)-N-(1-(5-(7-aminoquinoxalin-5-yl)pyrimidin-2-yl)pyrrolidin-3-yl)-2-fluorobenzamide] |  |  |  |  |  |  | 1.19 | 1.2 | 0.97 | 0.98 |  | 42.94
7 | CC(C)Nc1cc(-c2ccc(N3CC(Oc4cccc(F)c4)C3)nc2)c2nccnc2c1 [Example 5, 8-(6-(3-(3-fluorophenoxy)azetidin-1-yl)pyridin-3-yl)-N-isopropylquinoxalin-6-amine] |  |  |  |  |  |  | 1.34 | 0.72 | 5.96 | 6.14 |  | 36.07
8 | O=[N+]([O-])c1cc(-c2ccc(N3CC(Oc4cccc(F)c4)C3)nc2)c2nccnc2c1 [Example 27, 5-(6-(3-(3-fluorophenoxy)azetidin-1-yl)pyridin-3-yl)-7-nitroquinoxaline] | 62.8 | > 10 | 67.2 | 59.9 | 58.1 | 101 |  |  |  |  |  | 94.57
9 | CN1CCN(c2ccc(-c3cc(N)cc4nccnc34)cn2)CC1 [Example 20, 8-(6-(4-methylpiperazin-1-yl)pyridin-3-yl)quinoxalin-6-amine] |  |  |  |  |  |  | 12.9 | 15.3 | 48.1 | 45 |  | 81.61
10 | CCN(CC)c1cc(-c2ccc(N3CC(Oc4cccc(F)c4)C3)nc2)c2nccnc2c1 [Example 28, N,N-diethyl-8-(6-(3-(3-fluorophenoxy)azetidin-1-yl)pyridin-3-yl)quinoxalin-6-amine] | 16.5 | > 10 | 28.3 | 4.19 | 4.35 | 105 |  |  |  |  |  | 94.81
11 | CC(C)CNc1cc(-c2ccc(N3CC(Oc4cccc(F)c4)C3)nc2)c2nccnc2c1 [Example 7, 8-(6-(3-(3-fluorophenoxy)azetidin-1-yl)pyridin-3-yl)-N-isobutylquinoxalin-6-amine] |  |  |  |  |  |  | 0.85 | 1.07 | 4.28 | 4.26 |  | 53.57

Now from value to molecule, other results behind:

Row | remaining activity at 1 µM (RET(V804M)) [%] | IC50 (BaF3 KIF5B-RET (G810R)) [µM] | remaining activity at 1 µM (RET) [%] | remaining activity at 30 µM (RET (G810S/M918T); [1]) [%] | remaining activity at 30 µM (RET (G810S/M918T); [2]) [%] | remaining activity at 1 µM (RET(G810R)) [%] | remaining activity at 10 µM (RET-CCDC6 (PTC1); [3]) [%] | remaining activity at 10 µM (RET-CCDC6 (PTC1); [4]) [%] | remaining activity at 10 µM (RET (G810S/M918T); [1]) [%] | remaining activity at 10 µM (RET (G810S/M918T); [2]) [%] | remaining activity at 0.1 µM (RET(G810R); compound at 0.1 uM) [%] | Structure (SMILES) | Cell Proliferation (% of control) (A-549) [%]
12 | 59.3 | 4.44 | 57 | 18.2 | 17.2 | 97.9 |  |  |  |  |  | CCNc1cc(-c2ccc(F)nc2)c2nccnc2c1 [Intermediate Compound 6, N-ethyl-8-(6-fluoropyridin-3-yl)quinoxalin-6-amine] | 
13 |  |  |  |  |  |  | 0.91 | 1.28 | -0.06 | -0.31 |  | CCCNc1cc(-c2ccc(N3CC[C@H](NC(=O)c4ccccc4F)C3)nc2)c2nccnc2c1 [Example 13, (S)-2-fluoro-N-(1-(5-(7-(propylamino)quinoxalin-5-yl)pyridin-2-yl)pyrrolidin-3-yl)benzamide] | 39.32
14 | 104 | > 10 | 95.7 | 92.6 | 89.7 | 102 |  |  |  |  |  | O=C(Nc1cc(-c2ccc(F)nc2)c2nccnc2c1)c1ccco1 [Intermediate Compound 13, N-(8-(6-fluoropyridin-3-yl)quinoxalin-6-yl)furan-2-carboxamide] | 
15 | 68.3 | 0.73 | 71.1 | 10.3 | 9.57 | 104 |  |  |  |  |  | CCNc1cc(Br)c2nccnc2c1 [Intermediate Compound 18, 8-Bromo-N-ethylquinoxalin-6-amine] | 
16 |  |  |  |  |  |  | 1.05 | 1.32 | 2.18 | 2.37 |  | CCCCNc1cc(-c2ccc(N3CC(Oc4cccc(F)c4)C3)nc2)c2nccnc2c1 [Example 6, N-butyl-8-(6-(3-(3-fluorophenoxy)azetidin-1-yl)pyridin-3-yl)quinoxalin-6-amine] | 68.59
17 | 87.1 | > 10 | 93.7 | 74.7 | 73 | 97.6 |  |  |  |  |  | O=C(Nc1cc(Br)c2nccnc2c1)c1ccco1 [Intermediate Compound 11, N-(8-bromoquinoxalin-6-yl)furan-2-carboxamide] | 
18 |  |  |  |  |  |  | 26 | 28 | 66.7 | 63.3 |  | CCN1CCN(c2ccc(-c3cc(N)cc4nccnc34)cn2)CC1 [Example 21, 8-(6-(4-ethylpiperazin-1-yl)pyridin-3-yl)quinoxalin-6-amine] | 64.90
19 | 94.9 |  | 93.5 | 97.4 | 99.4 | 99.5 |  |  |  |  |  | O=[N+]([O-])c1cc(-c2ccc(F)nc2)c2nccnc2c1 [Intermediate Compound 15, 5-(6-fluoropyridin-3-yl)-7-nitroquinoxaline] | 
